The text below walks through data of US8377884B2, “Variants of C-type natriuretic peptides” (Biomarin Pharmaceutical Inc., priority 2007, dated 2013).

“Also recorded” adds a separate entry of the source. Read-outs that look alike come from different tables or passages of the source. Bridge positions count the residues as written; N and C are the ends. Peptide text beside a SMILES is read from it. * marks the point of attachment. CH3O(CH2CH2O)11CH2CH2CO = COCCOCCOCCOCCOCCOCCOCCOCCOCCOCCOCCOCCC(=O)*

The target in one data set is Recombinant human NEP (Homo sapiens, UniProt P08473). As to the kind of experiment: In vitro neutral endopeptidase (NEP) cleavage assay. The gist of the method:
(§1)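 Recombinant human NEP (1 ug/mL final) incubated with 100 uM CNP variant in 0.1 M Tris, pH 7, at 37° C for various times, then quenched with EDTA (10 mM final) and heat. Samples reduced and analysed by HPLC and mass spectrometry. Half-life derived from loss of intact variant over time.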

Data set [1] addresses neutral endopeptidase (NEP) (Homo sapiens, UniProt P08473). The description is as above. As to conditions: human, pH 7. The essentials: as §1
Another data set addresses T1, NPR-B (Mus musculus, UniProt Q6VVW5).
T1 construct: Murine NIH3T3 cells express endogenously the CNP signaling receptor, NPR-B; endogenous in cells; host or cells: NIH3T3 (murine fibroblasts)
T1 sequence (Q6VVW5 17-1047): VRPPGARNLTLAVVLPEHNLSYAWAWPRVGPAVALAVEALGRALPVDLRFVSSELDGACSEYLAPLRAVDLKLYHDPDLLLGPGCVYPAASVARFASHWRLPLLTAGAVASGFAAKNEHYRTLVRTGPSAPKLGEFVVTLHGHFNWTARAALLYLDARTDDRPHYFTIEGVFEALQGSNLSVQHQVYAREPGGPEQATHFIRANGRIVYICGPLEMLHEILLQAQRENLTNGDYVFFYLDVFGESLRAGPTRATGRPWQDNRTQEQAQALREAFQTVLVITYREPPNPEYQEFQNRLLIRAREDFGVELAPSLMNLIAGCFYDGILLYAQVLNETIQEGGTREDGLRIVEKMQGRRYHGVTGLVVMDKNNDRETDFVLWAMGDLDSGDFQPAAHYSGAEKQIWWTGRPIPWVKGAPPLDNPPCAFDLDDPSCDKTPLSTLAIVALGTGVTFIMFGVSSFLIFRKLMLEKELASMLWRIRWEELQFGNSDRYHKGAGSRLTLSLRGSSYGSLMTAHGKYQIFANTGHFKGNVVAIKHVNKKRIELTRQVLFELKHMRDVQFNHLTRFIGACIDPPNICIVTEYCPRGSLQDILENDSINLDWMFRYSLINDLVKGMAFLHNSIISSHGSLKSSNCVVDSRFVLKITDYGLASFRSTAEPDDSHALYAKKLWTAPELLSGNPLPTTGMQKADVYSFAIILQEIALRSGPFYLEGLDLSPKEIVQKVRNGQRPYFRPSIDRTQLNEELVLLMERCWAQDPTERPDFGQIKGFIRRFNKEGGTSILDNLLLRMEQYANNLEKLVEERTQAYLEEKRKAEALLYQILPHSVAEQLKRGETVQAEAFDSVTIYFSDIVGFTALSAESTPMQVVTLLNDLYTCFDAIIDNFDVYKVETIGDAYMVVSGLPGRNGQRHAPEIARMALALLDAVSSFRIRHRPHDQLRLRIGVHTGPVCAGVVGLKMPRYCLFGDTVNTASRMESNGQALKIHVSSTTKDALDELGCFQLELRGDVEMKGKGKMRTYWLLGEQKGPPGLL
The data set can be described thus: Stimulation of cGMP production in NIH3T3 cells. The class given is cell-based, Murine. As to conditions: for cGMP response relative to 1 uM CNP22 (%) at 0.01 µM: read-out: cGMP Response rel. to 1 uM CNP22, 10 nM; for cGMP response relative to 1 uM CNP22 (%) at 1 µM: read-out: cGMP Response rel. to 1 uM CNP22, 1 uM.

The mark [2] stands for this setting: in vitro NEP cleavage assay, assay period 160 minutes.
Where [3] appears, read: NIH3T3 cells, 10 nM natriuretic peptide, normalized to cell number and cGMP production with 1 uM wtCNP22.
Setting [4] is: NIH3T3 cells, 1 uM natriuretic peptide, normalized to cell number and cGMP production with 1 uM wtCNP22.

Chain of neutral endopeptidase (NEP) (P08473 whole entry): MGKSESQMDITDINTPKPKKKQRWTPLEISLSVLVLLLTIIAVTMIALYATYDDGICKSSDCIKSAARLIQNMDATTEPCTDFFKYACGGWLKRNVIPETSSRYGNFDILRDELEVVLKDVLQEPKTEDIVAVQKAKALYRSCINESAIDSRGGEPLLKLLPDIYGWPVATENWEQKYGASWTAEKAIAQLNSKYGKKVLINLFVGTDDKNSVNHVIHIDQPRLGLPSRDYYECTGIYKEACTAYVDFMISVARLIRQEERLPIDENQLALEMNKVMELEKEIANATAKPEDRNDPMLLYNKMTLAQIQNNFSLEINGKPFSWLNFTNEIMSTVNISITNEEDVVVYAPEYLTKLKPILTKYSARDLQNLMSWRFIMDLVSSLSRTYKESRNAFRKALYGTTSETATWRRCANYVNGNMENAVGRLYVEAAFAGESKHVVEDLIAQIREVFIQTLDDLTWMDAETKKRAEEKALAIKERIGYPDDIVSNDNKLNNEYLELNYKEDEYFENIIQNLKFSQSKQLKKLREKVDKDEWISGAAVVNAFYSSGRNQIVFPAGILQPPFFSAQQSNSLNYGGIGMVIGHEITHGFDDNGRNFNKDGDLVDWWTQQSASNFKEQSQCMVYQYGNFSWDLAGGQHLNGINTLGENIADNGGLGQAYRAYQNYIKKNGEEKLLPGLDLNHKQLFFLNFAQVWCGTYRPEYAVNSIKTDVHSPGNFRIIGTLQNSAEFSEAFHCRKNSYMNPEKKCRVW
Chain of Recombinant human NEP (P08473 whole entry): as above

As usually defined, the half-life is the time needed for the level to fall by half in the phase considered. Higher therefore signals slow decline. With `CC[C@H](C)[C@@H]1NC(=O)[C@H](CCCNC(=N)N)NC(=O)[C@H](CC(=O)O)NC(=O)[C@H](CC(C)C)NC(=O)[C@H](CCCCN)NC(=O)[C@H](CC(C)C)NC(=O)CNC(=O)[C@H](Cc2ccccc2)NC(=O)[C@@H](NC(=O)CNC(=O)[C@H](CCCCN)NC(=O)[C@H](CO)NC(=O)[C@H](CC(C)C)NC(=O)CNC(=O)[C@H](CO)NC(=O)[C@@H]2CCCN2C(=O)[C@@H]2CCCN2C(=O)[C@H](CC(C)C)NC(=O)[C@@H](NC(=O)[C@H](Cc2ccc(O)cc2)NC(=O)[C@@H](NC(=O)[C@H](CCC(N)=O)NC(=O)[C@@H]2CCCN2C(=O)[C@H](CCC(=O)O)NC(=O)[C@H](CCCNC(=N)N)NC(=O)[C@@H]2CCCN2C(=O)[C@H](CCC(N)=O)NC(=O)CN)C(C)C)[C@@H](C)O)CSSC[C@@H](C(=O)O)NC(=O)CNC(=O)[C@H](CC(C)C)NC(=O)CNC(=O)[C@H](CO)NC(=O)[C@H](CCSC)NC(=O)[C@H](CO)NC(=O)CNC1=O` [CF] (H-GQPREPQVYTLPPSGLSKGCFGLKLDRIGSMSGLGC-OH; disulfide 20-36 (inferred); N-terminus and C-terminus assumed), the “resistance to NEP cleavage/degradation (in words)” value at Recombinant human NEP (setting [2]) is recorded as “most resistant to NEP degradation; also recorded: much more resistant to NEP cleavage than CNP22”. The molecule also gave a half-life at 100 uM in data set [1] of over 2.67 h. For the same molecule, at NPR-B (NIH3T3, […]), the cGMP response relative to 1 uM CNP22 (%) at 0.01 µM came out at 23 ± 9% and the cGMP response relative to 1 uM CNP22 (%) at 1 µM was 72 ± 19%.
On to `CC[C@H](C)[C@@H]1NC(=O)[C@H](CCCNC(=N)N)NC(=O)[C@H](CC(=O)O)NC(=O)[C@H](CC(C)C)NC(=O)[C@H](CCCCN)NC(=O)[C@H](CC(C)C)NC(=O)CNC(=O)[C@H](Cc2ccccc2)NC(=O)[C@@H](NC(=O)CNC(=O)[C@H](CCCNC(=N)N)NC(=O)[C@H](CO)NC(=O)[C@H](CC(C)C)NC(=O)CNC(=O)[C@H](CCC(N)=O)NC(=O)[C@H](CCC(N)=O)NC(=O)[C@H](CC(N)=O)NC(=O)[C@H](C)NC(=O)CNC(=O)[C@@H](NC(=O)[C@H](Cc2ccc(O)cc2)NC(=O)[C@@H](NC(=O)[C@H](CCC(N)=O)NC(=O)[C@@H]2CCCN2C(=O)[C@H](CCC(=O)O)NC(=O)[C@H](CCCNC(=N)N)NC(=O)[C@@H]2CCCN2C(=O)[C@H](CCC(N)=O)NC(=O)CN)C(C)C)[C@@H](C)O)CSSC[C@@H](C(=O)O)NC(=O)CNC(=O)[C@H](CC(C)C)NC(=O)CNC(=O)[C@H](CO)NC(=O)[C@H](CCSC)NC(=O)[C@H](CO)NC(=O)CNC1=O` [CK] (H-GQPREPQVYTGANQQGLSRGCFGLKLDRIGSMSGLGC-OH; disulfide 21-37 (inferred); N-terminus and C-terminus assumed), for which, on Recombinant human NEP, the “resistance to NEP cleavage/degradation (in words)” value was “most resistant to NEP degradation”. Moreover, the half-life at 100 uM in data set [1] was at least 2.67 h. The cGMP response relative to 1 uM CNP22 (%) at 0.01 µM at NPR-B (setting [3]) stood at 2%. The cGMP response relative to 1 uM CNP22 (%) at 1 µM at NPR-B (setting [4]) turned out to be 32%.
As for `CC[C@H](C)[C@@H]1NC(=O)[C@H](CCCNC(=N)N)NC(=O)[C@H](CC(=O)O)NC(=O)[C@H](CC(C)C)NC(=O)[C@H](CCCCN)NC(=O)[C@H](CC(C)C)NC(=O)CNC(=O)[C@H](Cc2ccccc2)NC(=O)[C@@H](NC(=O)CNC(=O)[C@H](CCCNC(=N)N)NC(=O)[C@H](CO)NC(=O)[C@H](CC(C)C)NC(=O)CN)CSSC[C@@H](C(=O)O)NC(=O)CNC(=O)[C@H](CC(C)C)NC(=O)CNC(=O)[C@H](CO)NC(=O)[C@H](CCSC)NC(=O)[C@H](CO)NC(=O)[C@H](CC(N)=O)NC1=O` [BJ] (H-GLSRGCFGLKLDRINSMSGLGC-OH; disulfide 6-22 (inferred); N-terminus and C-terminus assumed), at Recombinant human NEP (setting [2]), the “resistance to NEP cleavage/degradation (in words)” value is “greatest resistance to NEP cleavage”. The molecule further gave a half-life at 100 uM in data set [1] of 2.5 h. Further, on NPR-B (NIH3T3, […]), the cGMP response relative to 1 uM CNP22 (%) at 0.01 µM was found to be 4% and the cGMP response relative to 1 uM CNP22 (%) at 1 µM came out at 41%.
In the case of `CC[C@H](C)[C@@H]1NC(=O)[C@H](CCCNC(=N)N)NC(=O)[C@H](CC(=O)O)NC(=O)[C@H](CC(C)C)N(C)C(=O)[C@H](CCCCN)NC(=O)[C@H](CC(C)C)N(C)C(=O)CNC(=O)[C@H](Cc2ccccc2)NC(=O)[C@@H](NC(=O)CNC(=O)[C@H](CCCCN)NC(=O)[C@H](CO)NC(=O)[C@H](CC(C)C)NC(=O)CN)CSSC[C@@H](C(=O)O)NC(=O)CNC(=O)[C@H](CC(C)C)N(C)C(=O)CNC(=O)[C@H](CO)NC(=O)[C@H](CCSC)NC(=O)[C@H](CO)NC(=O)CNC1=O` [L], the “resistance to NEP cleavage/degradation (in words)” value on Recombinant human NEP (setting [2]) is listed as “significantly shorter half-life”. Also, in data set [1], the half-life at 100 uM stood at 0.5 h. Also, on NPR-B (NIH3T3, […]), the cGMP response relative to 1 uM CNP22 (%) at 0.01 µM amounted to 18% and the cGMP response relative to 1 uM CNP22 (%) at 1 µM worked out at 10%.
As for `CC[C@H](C)[C@@H]1NC(=O)[C@H](CCCNC(=N)N)NC(=O)[C@H](CC(=O)O)NC(=O)[C@H](CC(C)C)NC(=O)[C@H](CCCCN)NC(=O)[C@H](CC(C)C)NC(=O)CNC(=O)[C@H](Cc2ccccc2)NC(=O)[C@@H](NC(=O)CNC(=O)[C@H](CCCNC(=N)N)NC(=O)[C@H](CO)NC(=O)[C@H](CC(C)C)NC(=O)CNC(=O)[C@H](CCCNC(=N)N)NC(=O)[C@H](CCCNC(=N)N)NC(=O)[C@H](CC(N)=O)NC(=O)[C@H](C)NC(=O)CNC(=O)CCOCCOCCOCCOCCOCCOCCOCCOCCOCCOCCOCCOC)CSSC[C@@H](C(=O)O)NC(=O)CNC(=O)[C@H](CC(C)C)NC(=O)CNC(=O)[C@H](CO)NC(=O)[C@H](CCSC)NC(=O)[C@H](CO)NC(=O)CNC1=O` [PEO12-GANRR-CNP22, K4R (CNP27)] ({CH3O(CH2CH2O)11CH2CH2CO}-GANRRGLSRGCFGLKLDRIGSMSGLGC-OH; disulfide 11-27; C-terminus assumed), the “resistance to NEP cleavage/degradation (in words)” value with Recombinant human NEP was “much more resistant to NEP degradation than CNP22”. The half-life at 100 uM in data set [1] was over 2.67 h. Moreover, the “NPR-B stimulation activity / cGMP production compared with wtCNP22 (in words)” value on NPR-B (NIH3T3 cells) is listed as “substantially the same NPR-B stimulation activity as CNP22”. In addition, the cGMP response relative to 1 uM CNP22 (%) at 0.01 µM at NPR-B (setting [3]) was 40 ± 2%. Also, the cGMP response relative to 1 uM CNP22 (%) at 1 µM on NPR-B (setting [4]) amounted to 99 ± 13%.
